Measured values reported in PubChem BioAssay AID248 (DTP/NCI, 2004).
Inconclusive results and toxic doses are left out. No stated cut-off is given here; in the data, active means T/C of 150% or more; inactive means T/C below 125%.

System: L1210 leukemia ip in BDF1 mice, survival T/C
Experiment: NCI In Vivo Anticancer Drug Screen. Data for tumor model L1210 Leukemia (intraperitoneal) in B6D2F1 (BDF1) mice
Conditions: endpoint: mean survival time, higher = longer survival
Summary of the method: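 Survival endpoint. Drug-treated group vs vehicle group, expressed as T divided by C. Tumor passaged by transplantation.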

[1] = dose: 50.0 mg/kg/injection, schedule: Q01DX009 (ip), vehicle: Klucel (hydroxypropylcellulose) (HPC)

Measured: T/C

O=C(Cl)C1CCC1C(=O)Cl (stereo not given)
inactive: dose: 75.0 mg/kg/injection, schedule: Q01DX001 (ip), vehicle: carboxymethylcellulose (CMC) 102 % of control | dose: 150.0 mg/kg/injection, schedule: Q01DX001 (ip), vehicle: carboxymethylcellulose (CMC) 91 % of control

O=C(CCN1CC1)Nc1ccc(Cl)c(Cl)c1
inactive: dose: 20.0 mg/kg/injection, schedule: Q04DX003 (ip), vehicle: Klucel (hydroxypropylcellulose) (HPC) 88 % of control | dose: 25.0 mg/kg/injection, schedule: Q01DX009 (ip), vehicle: Klucel (hydroxypropylcellulose) (HPC) 98 % of control | dose: 40.0 mg/kg/injection, schedule: Q04DX003 (ip), vehicle: Klucel (hydroxypropylcellulose) (HPC) 98 % of control | [1] 101 % of control | dose: 80.0 mg/kg/injection, schedule: Q04DX003 (ip), vehicle: Klucel (hydroxypropylcellulose) (HPC) 92 % of control | dose: 100.0 mg/kg/injection, schedule: Q04DX003 (ip), vehicle: Klucel (hydroxypropylcellulose) (HPC) 86 % of control

CCOP(=O)(Cc1ccc(CP(=O)(OCC)OCC)cc1)OCC
inactive: dose: 100.0 mg/kg/injection, schedule: Q04DX003 (ip), vehicle: saline 105 % of control | dose: 200.0 mg/kg/injection, schedule: Q04DX003 (ip), vehicle: saline 97 % of control | dose: 400.0 mg/kg/injection, schedule: Q04DX003 (ip), vehicle: saline 101 % of control

Oc1ccccc1C=Nc1ccc(Cl)cc1
inactive: dose: 100.0 mg/kg/injection, schedule: Q04DX002 (ip), vehicle: saline with Tween-80 105 % of control | dose: 200.0 mg/kg/injection, schedule: Q04DX002 (ip), vehicle: saline with Tween-80 105 % of control | dose: 400.0 mg/kg/injection, schedule: Q04DX002 (ip), vehicle: saline with Tween-80 97 % of control

CC(=O)OCC1OC(C(N)=O)C(OC(C)=O)C1OC(C)=O (stereo not given)
inactive: dose: 100.0 mg/kg/injection, schedule: Q01DX001 (ip), vehicle: other 102 % of control | dose: 100.0 mg/kg/injection, schedule: Q04DX003 (ip), vehicle: saline with Tween-80 93 % of control | dose: 200.0 mg/kg/injection, schedule: Q01DX001 (ip), vehicle: other 98 % of control | dose: 200.0 mg/kg/injection, schedule: Q04DX003 (ip), vehicle: saline with Tween-80 104 % of control | dose: 400.0 mg/kg/injection, schedule: Q01DX001 (ip), vehicle: other 98 % of control | dose: 400.0 mg/kg/injection, schedule: Q04DX003 (ip), vehicle: saline with Tween-80 98 % of control

COCc1nc2c(=S)nc[nH]c2n1N
inactive: dose: 100.0 mg/kg/injection, schedule: Q01DX001 (ip), vehicle: carboxymethylcellulose (CMC) 105 % of control | dose: 200.0 mg/kg/injection, schedule: Q01DX001 (ip), vehicle: carboxymethylcellulose (CMC) 98 % of control

CN(C)C(=S)Oc1ccc(O)cc1
inactive: dose: 100.0 mg/kg/injection, schedule: Q01DX001 (ip), vehicle: saline with Tween-80 102 % of control | dose: 200.0 mg/kg/injection, schedule: Q01DX001 (ip), vehicle: saline with Tween-80 97 % of control | dose: 400.0 mg/kg/injection, schedule: Q01DX001 (ip), vehicle: saline with Tween-80 100 % of control

O=c1[nH]c2cnn(-c3ccccc3)c2c(=O)n1OS(=O)(=O)c1ccccc1
inactive: dose: 5.0 mg/kg/injection, schedule: Q01DX001 (ip), vehicle: saline 103 % of control | dose: 10.0 mg/kg/injection, schedule: Q01DX001 (ip), vehicle: saline 100 % of control | dose: 20.0 mg/kg/injection, schedule: Q01DX001 (ip), vehicle: saline 100 % of control | dose: 40.0 mg/kg/injection, schedule: Q01DX001 (ip), vehicle: saline 97 % of control | dose: 50.0 mg/kg/injection, schedule: Q01DX001 (ip), vehicle: saline 109 % of control | dose: 80.0 mg/kg/injection, schedule: Q01DX001 (ip), vehicle: saline 97 % of control | dose: 100.0 mg/kg/injection, schedule: Q01DX001 (ip), vehicle: saline 100 % of control | dose: 200.0 mg/kg/injection, schedule: Q01DX001 (ip), vehicle: saline 97 % of control | dose: 400.0 mg/kg/injection, schedule: Q01DX001 (ip), vehicle: saline 103 % of control

C/C=C1/CN2C3CC1C1(C(=O)OC)C2CC2(c4ccccc4N(C)C32)C1O (stereo not given)
inactive: [1] 94 % of control | dose: 100.0 mg/kg/injection, schedule: Q01DX001 (ip), vehicle: Klucel (hydroxypropylcellulose) (HPC) 105 % of control | dose: 100.0 mg/kg/injection, schedule: Q01DX009 (ip), vehicle: Klucel (hydroxypropylcellulose) (HPC) 98 % of control | dose: 200.0 mg/kg/injection, schedule: Q01DX001 (ip), vehicle: Klucel (hydroxypropylcellulose) (HPC) 97 % of control | dose: 200.0 mg/kg/injection, schedule: Q01DX009 (ip), vehicle: Klucel (hydroxypropylcellulose) (HPC) 96 % of control | dose: 400.0 mg/kg/injection, schedule: Q01DX001 (ip), vehicle: Klucel (hydroxypropylcellulose) (HPC) 93 % of control
